From patent publication US20080152694A1, “Devices, Systems and Methods for Ophthalmic Drug Delivery” (priority 2006, published 2008)
≈ marks a conversion by molar mass, not a printed value.

What was measured:
[1] = Dissolution of gacyclidine base pellets in a continuous flow reactor, eluted with Ringer's solution containing hydrochloric acid; format: physicochemical; details: for pH of the eluted drug solution: 20 μL/hr, room temperature (23±2° C.)
Method: A drug chamber similar to the one illustrated in FIG. 5 was loaded with 11 pellets of gacyclidine base having a combined mass of 18 mg. This drug-loaded chamber was eluted at a flow rate of 20 μL/hr at room temperature (23±2° C.) using a MiniMed 508 syringe pump (available from Medtronics MiniMed of Northridge, Calif.). The syringe was loaded with 3 mL of Ringer's solution containing 0.05 to 3 mM hydrochloric acid. The eluted volume was collected in PTFE tubing attached to the pump drug capsule assembly, after a 3-D antibacterial filter. The pH of this solution was determined by use of a pH meter equipped with a Calomel electrode. Drug concentration was determined by HPLC.
The highest pH of the eluted drug solution (5.9) was obtained at 0.05 mM hydrochloric acid, and the lowest pH of the eluted drug solution (5.6) was obtained at 3 mM hydrochloric acid. These pH values indicate quantitative conversion of the hydrochloric acid to the drug salt and are consistent with the pH expected for solutions of the hydrochloride salt.

[2] = Water solubility of gacyclidine forms; format: physicochemical
Source text: (§1) An advantage of using solid drug in an implanted device is, in at least some embodiments, the ability to store drug in the device using a smaller volume than might be required if a premixed (or other liquid) form of the drug were used. In some cases, this smaller volume enables implantation of a device containing enough drug to provide (when combined with an appropriate vehicle source) substantially continuous long term therapy. This long term therapy can be over a period of days, weeks, or months. In some cases, long term therapy may extend over several years. One example of a basic crystalline or solid amorphous drug suitable for use in methods according to some embodiments is gacyclidine. For example, it is estimated that 18 mg of solid gacyclidine eroded with an appropriate vehicle will deliver 100 μM drug over 4 years at a flow rate of 20 microliters per hour or less. […] Dissolution of the basic form of gacyclidine in water requires the presence of an acid (e.g., hydrochloric acid or lactic acid) to convert the basic form to the water-soluble acidic form. The concentration of gacyclidine in solution will therefore depend on the amount of acid available to convert the basic form to the acid form. […]

[3] = Stability of gacyclidine forms in the presence of water; format: physicochemical; details: body temperature / in the presence of water
Source text: as §1

[4] = format: physicochemical; details: solid pellets exposed to a continuous stream of vehicle such as Ringer's solution
Method: Triamcinolone acetonide is commercially available as a crystalline solid with very low water solubility. If solid pellets of triamcinolone acetonide are exposed to a continuous stream of a vehicle, such as Ringer's solution, the expected concentration of extracted triamcinolone acetonide in solution should be 40 μM or less. A higher concentration of triamcinolone acetonide can be solubilized by including an amphipathic molecule in the vehicle. Such a pharmaceutically acceptable amphipathic molecule would be polysorbate 80 (e.g., TWEEN 80®). The concentration of triamcinolone acetonide solubilized can be increased above its water solubility, 40 μM, by adding the required amount of amphipathic molecule to the vehicle that will support the desired drug concentration. The invention is not limited to methods implemented through use of triamcinolone acetonide, Ringer's solution or polysorbate 80. Any sparingly soluble drug, pharmaceutically acceptable vehicle and pharmaceutically acceptable amphipathic molecule can be used.

[5] = cited from earlier work

Compound	correlation in gacyclidine concentration per hydrochloric acid concentration used for elution ([1]; 0.05 to 3 mM hydrochloric acid in Ringer's solution, drug concentration by HPLC, FIG. 27)	pH of the eluted drug solution ([1]; Ringer's solution with 0.05 mM hydrochloric acid, highest pH)	pH of the eluted drug solution ([1]; Ringer's solution with 3 mM hydrochloric acid, lowest pH)	intercept at zero concentration of hydrochloric acid (gacyclidine concentration) ([1]; linear fit of eluted gacyclidine concentration vs hydrochloric acid concentration, FIG. 27) [mM]	water solubility (in words) [2]	stability (in words) [3]	expected concentration of extracted triamcinolone acetonide in solution [4] [µM]	water solubility [5] [µM]
CC1CCCCC1(c1cccs1)N1CCCCC1 (stereo not shown) [gacyclidine]	0.976±0.049	5.9	5.6	0.0014 ± 0.0061	sparingly soluble in water	much more stable than its acidic form	–	–
C[C@H]1CCCC[C@@]1(c1cccs1)N1CCCCC1.Cl [hydrochloride salt of gacyclidine, gacyclidine hydrochloride]	–	–	–	–	highly water soluble	unstable at body temperature	–	–
CC1(C)O[C@@H]2C[C@H]3[C@@H]4CCC5=CC(=O)C=C[C@]5(C)[C@@]4(F)[C@@H](O)C[C@]3(C)[C@]2(C(=O)CO)O1 [triamcinolone acetonide]	–	–	–	–	–	–	≤ 40	40 (≈ 17.4 µg/mL)
